Reference: patent publication US10683272B2 (THE JOHNS HOPKINS UNIVERSITY, priority 2014, dated 2020)

Test: radiation dosimetry (OLINDA/EXM) from baboon PET data
Assay type: Reference Adult Male based on baboon PET imaging data
Method: For each time-point, the activity concentration (in Bq/cm^3) was measured in each of the 14 delineated organs and multiplied by the organ volume to obtain the total activity per time point per organ. The measured values were then decay-corrected and divided by the baboon organ mass, determined by the CT density and volume from the drawn contours, and the injected radioactivity to obtain the fraction of initial radioactivity per gram (FIA/g) for each time point and each organ. The baboon FIA/g values were then converted to human FIA (per organ) using the following equation (Schwartz et al., 2011; Woodard et al., 1975): […]
That approach assumes that the concentration of activity in a particular tissue relative to the overall concentration in the whole body is preserved across species (i.e., organ concentration/total body concentration is the same for baboon and man). The resulting human FIA values were plotted as a function of time (nine data points) for each organ and fit to a bi-exponential expression: FIA(t)=A1.e^−(λ1^bio^.t)+A2.e^−(Δ2^bio^.t) (2)
where A1, A2, λ1bio, and λ2bio are fit parameters. The sum of A1 and A2 give the back-extrapolated, time-zero fraction of administered radioactivity in each organ, and λ1bio and λ2bio are the biological clearance constants. The equation for the time-integrated activity coefficient [TIAC, previously known as residence time (Bolch et al., 2009) for each source organ was obtained, as its name implies, by integrating equation (2) and introducing a physical decay term, λφ, which depends on the isotope used:
TIACs were calculated for ^90Y, ^177Lu and ^86Y, with their corresponding physical decay constants: ^90Y λφ=0.01083 h^−1 (T1/2=64.0 h); ^177Lu λφ=0.00429 h^−1 (T1/2=161.52 h) and ^86Y λφ=0.04702 h^−1 (T1/2=14.74 h), respectively voiding. Radiation absorbed doses were obtained by converting time-integrated activity to absorbed doses according to the MIRD absorbed fraction methodology (Bolch et al., 2009) through the use of the OLINDA/EXM software (Stabin et al., 2005). The TIAC for the urinary bladder was obtained using the MIRD bladder model implemented in OLINDA/EXM. Input to that model requires the whole-body TIAC, which was obtained from the equation FIA(t)=A. e^(−λ^bio^t) fitted to whole-body retention kinetics. The voiding interval was set to 2 h. The TIACs were then input into OLINDA/EXM (Stabin et al., 2005), and the resulting absorbed dose per unit of radioactivity obtained for the 14 organs. The specific kidney model in OLINDA/EXM was used to obtain the renal cortex dose values. The absorbed dose from organs external to the kidney was added to the renal cortex dose calculated from the internal kidney model. The specific prostate model was used for prostate self-dose, and external dose to the bladder was added as a surrogate for the whole body to prostate dose. The self-dose component of the absorbed dose per unit activity for the salivary glands was obtained using 3D-RD Monte Carlo (EGSnrc) and a human CT with delineated salivary glands. The cross-dose component was taken by assuming the same cross-dose for a like-sized organ (pancreas).
Measured activity concentration (in Bq/cm^3) values per time point per organ were decay-corrected and divided by the baboon organ mass, determined by the CT density and volume from the drawn contours, and the injected radioactivity to obtain the fraction of initial radioactivity per gram (FIA/g) for each time point and each organ. The baboon FIA/g values were then converted to human FIA (per organ) using the related equation (Olszewski et al., 2004; Schwartz et al., 2011). The resulting human FIA values were then plotted as a function of time and fit to a bi-exponential expression and the value for the time-integrated activity coefficient (TIAC, previously known as residence time (Woodard et al., 1975)) for each source organ was calculated. […]

O=C([O-])CN1CCN(CC(=O)[O-])CCN(CC(=O)[O-])C(Cc2ccc(NC(=S)NCCCCNC(=O)CCCCCCC(=O)NCCCC[C@H](NC(=O)N[C@@H](CCC(=O)O)C(=O)O)C(=O)O)cc2)CN(CC(=O)[O-])CC1.[86Y+3] (some centres unmarked) [^86Y-6]
Organ absorbed dose, Adrenals (^86Y): 8.62E−02 mGy/MBq
Organ absorbed dose, Brain (^86Y): 2.30E−02 mGy/MBq
Organ absorbed dose, Breasts (^86Y): 4.52E−02 mGy/MBq
Organ absorbed dose, Gallbladder wall (^86Y): 7.88E−02 mGy/MBq
Organ absorbed dose, Heart wall (^86Y): 6.70E−02 mGy/MBq
Organ absorbed dose, Kidneys (^86Y): 4.03E−01 mGy/MBq
Organ absorbed dose, LLI wall (^86Y): 9.61E−02 mGy/MBq
Organ absorbed dose, Liver (^86Y): 7.19E−02 mGy/MBq
Organ absorbed dose, Lungs (^86Y): 5.98E−02 mGy/MBq
Organ absorbed dose, Muscle (^86Y): 5.47E−02 mGy/MBq
Organ absorbed dose, Osteogenic cells (^86Y): 7.19E−02 mGy/MBq
Organ absorbed dose, Ovaries (^86Y): 9.48E−02 mGy/MBq
Organ absorbed dose, Pancreas (^86Y): 8.09E−02 mGy/MBq
Organ absorbed dose, Prostate (^86Y): 7.64E−02 mGy/MBq
Organ absorbed dose, Red marrow (^86Y): 6.29E−02 mGy/MBq
Organ absorbed dose, Renal cortex (^86Y): 4.24E−01 mGy/MBq
Organ absorbed dose, Salivary glands (^86Y): 1.78E−01 mGy/MBq
Organ absorbed dose, Skin (^86Y): 3.97E−02 mGy/MBq
Organ absorbed dose, Small intestine (^86Y): 8.72E−02 mGy/MBq
Organ absorbed dose, Spleen (^86Y): 7.23E−02 mGy/MBq
Organ absorbed dose, Stomach wall (^86Y): 6.69E−02 mGy/MBq
Organ absorbed dose, Testes (^86Y): 7.23E−02 mGy/MBq
Organ absorbed dose, Thymus (^86Y): 5.38E−02 mGy/MBq
Organ absorbed dose, Thyroid (^86Y): 5.07E−02 mGy/MBq
Organ absorbed dose, ULI wall (^86Y): 8.56E−02 mGy/MBq
Organ absorbed dose, Urinary bladder wall (^86Y): 6.17E−01 mGy/MBq
Organ absorbed dose, Uterus (^86Y): 1.34E−01 mGy/MBq
Time-integrated activity coefficient (residence time), Brain (^86Y): 1.41E−02 MBq-h/MBq
Time-integrated activity coefficient (residence time), Heart contents (^86Y): 2.55E−02 MBq-h/MBq
Time-integrated activity coefficient (residence time), Kidneys (^86Y): 4.08E−01 MBq-h/MBq
Time-integrated activity coefficient (residence time), Liver (^86Y): 1.37E−01 MBq-h/MBq
Time-integrated activity coefficient (residence time), Lungs (^86Y): 9.70E−02 MBq-h/MBq
Time-integrated activity coefficient (residence time), Muscle (^86Y): 4.76E−01 MBq-h/MBq
Time-integrated activity coefficient (residence time), Pancreas (^86Y): 6.37E−03 MBq-h/MBq
Time-integrated activity coefficient (residence time), Prostate (^86Y): 1.15E−03 MBq-h/MBq
Time-integrated activity coefficient (residence time), Remainder (^86Y): 3.64 MBq-h/MBq
Time-integrated activity coefficient (residence time), Renal cortex (^86Y): 3.23E−01 MBq-h/MBq
Time-integrated activity coefficient (residence time), Salivary Glands (^86Y): 4.45E−02 MBq-h/MBq
Time-integrated activity coefficient (residence time), Small intestine (^86Y): 9.31E−03 MBq-h/MBq
Time-integrated activity coefficient (residence time), Spleen (^86Y): 7.41E−03 MBq-h/MBq
Time-integrated activity coefficient (residence time), Stomach (^86Y): 6.44E−03 MBq-h/MBq
Time-integrated activity coefficient (residence time), ULI (^86Y): 1.99E−02 MBq-h/MBq
Time-integrated activity coefficient (residence time), Ur. bladder contents (^86Y): 7.41E−01 MBq-h/MBq
effective dose (^86Y, calculated in OLINDA/EXM): 0.099 mSv/MBq
Organ absorbed dose, Adrenals (^90Y): 3.46E−02 mGy/MBq
Organ absorbed dose, Brain (^90Y): 6.79E−03 mGy/MBq
Organ absorbed dose, Breasts (^90Y): 3.46E−02 mGy/MBq
Organ absorbed dose, Gallbladder wall (^90Y): 3.46E−02 mGy/MBq
Organ absorbed dose, Heart wall (^90Y): 5.33E−02 mGy/MBq
Organ absorbed dose, Kidneys (^90Y): 1.13 mGy/MBq
Organ absorbed dose, LLI wall (^90Y): 3.46E−02 mGy/MBq
Organ absorbed dose, Liver (^90Y): 4.99E−02 mGy/MBq
Organ absorbed dose, Lungs (^90Y): 6.57E−02 mGy/MBq
Organ absorbed dose, Muscle (^90Y): 1.32E−02 mGy/MBq
Organ absorbed dose, Osteogenic cells (^90Y): 5.26E−02 mGy/MBq
Organ absorbed dose, Ovaries (^90Y): 3.46E−02 mGy/MBq
Organ absorbed dose, Pancreas (^90Y): 4.64E−02 mGy/MBq
Organ absorbed dose, Prostate (^90Y): 4.78E−02 mGy/MBq
Organ absorbed dose, Red marrow (^90Y): 2.41E−02 mGy/MBq
Organ absorbed dose, Renal cortex (^90Y): 1.19 mGy/MBq
Organ absorbed dose, Salivary glands (^90Y): 2.79E−01 mGy/MBq
Organ absorbed dose, Skin (^90Y): 3.46E−02 mGy/MBq
Organ absorbed dose, Small intestine (^90Y): 4.29E−02 mGy/MBq
Organ absorbed dose, Spleen (^90Y): 1.64E−02 mGy/MBq
Organ absorbed dose, Stomach wall (^90Y): 3.46E−02 mGy/MBq
